Results reported in US20080176261A1, “Colorimetric Substrate and Methods for Detecting Poly(ADP-ribose) Polymerase Activity including PARP Enzymes PARP-1, VPARP, and Tankyrase-1” (THE BOARD OF TRUSTEES OF THE UNIVERSITY OF ILLINOIS, priority 2007, published 2008).
Where two headings read alike, the source gives them in different places.

Key:
[1] = molecular target: bovine serum albumin (Bos taurus, UniProt P02769); test: Control experiment with BSA (non-specific substrate cleavage); assay type: biochemical; conditions: 20 μM BSA, monitored 2 hours
Protocol: While exact kinetic parameters for PARP-1 can vary with the assay used, for PARP-1 the KM value with ADP-ribose-pNP is consistent with that of the natural β-NAD^+ substrate, while the Vmax is approximately 100 fold lower with the calorimetric substrate (see Table 1). […] To our knowledge, no data is available on the kinetic parameters of VPARP with β-NAD^+.
Control experiment with BSA. To determine that substrate cleavage is specific to the PARP family of enzymes, 16 μL of BSA was added to 81.5 μL of PARP assay buffer in a 96 well plate so that the final concentration was 20 μM in protein. The experiment was performed in triplicate along with controls that contained PARP assay buffer only. To both the wells containing only buffer or buffer and BSA, 2.5 μL of a 10 mM stock of the substrate was added to start the reaction. The plate was monitored at 405 nm for 2 hours.

[2] = molecular target: T1, VPARP (Homo sapiens, UniProt Q9UKK3); test: Continuous colorimetric PARP kinetic assay with ADP-ribose-pNP, VPARP active domain; assay type: biochemical; conditions: substrate ADP-ribose-pNP, 405 nm
T1 construct: The plasmid with the catalytic domain of VPARP, pET28b-p193cat; made in house; host or cells: E. coli Rosetta
T1 sequence (Q9UKK3 369-573 limits assumed): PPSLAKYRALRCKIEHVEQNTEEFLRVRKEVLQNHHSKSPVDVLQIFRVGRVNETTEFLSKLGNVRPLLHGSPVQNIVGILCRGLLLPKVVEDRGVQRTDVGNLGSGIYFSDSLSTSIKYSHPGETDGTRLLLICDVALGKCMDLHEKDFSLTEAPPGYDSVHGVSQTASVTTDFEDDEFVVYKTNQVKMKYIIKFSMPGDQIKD
Protocol: (§1) With the calorimetric substrate ADP-ribose-pNP in hand, a continuous calorimetric assay for PARP activity was developed and the kinetic parameters for three PARP isozymes were determined. In a 96-well plate, a range of concentrations of ADP-ribose-pNP in PARP assay buffer were incubated with either PARP-1 (DNase digested DNA was added to activate PARP-1), tankyrase-1 (refers to “active domain,” see Supporting Information), or VPARP (also refers to the “active domain”), and the optical density at 405 nm was measured every 60 seconds over a 2 hour time period. Change in absorbance was assessed in triplicate, and blanks containing 0 to 700 μM ADP-ribose-pNP in PARP assay buffer were also measured over the same time period. The absorbance of a range of p-nitrophenol concentrations was determined at 405 nm, and the slope of this calibration curve (see Supporting Information) was used to convert the absorbencies to moles of product generated; in this way the kinetic parameters for PARP-1, tankyrase-1, and VPARP were calculated (see Table 1 and FIG. 2). […]
(§2) The plate was divided in half with protein added to half the wells and the other half serving as blanks containing only PARP assay buffer and substrate. […] The plate was then read on a SpectraMax plus 384 UV/Vis plate reader (Molecular Devices), at 405 nm for 2 hours with observations performed once every minute. […]

[3] = molecular target: T2, tankyrase-1 (Homo sapiens, UniProt O95271); test: Continuous colorimetric PARP kinetic assay with ADP-ribose-pNP, tankyrase-1 active domain; assay type: biochemical
T2 construct: The SAM and PARP domain of tankyrase was subcloned into pGEX-5X-1; made in house; host or cells: E. coli Rosetta
T2 sequence (O95271 1030-1327): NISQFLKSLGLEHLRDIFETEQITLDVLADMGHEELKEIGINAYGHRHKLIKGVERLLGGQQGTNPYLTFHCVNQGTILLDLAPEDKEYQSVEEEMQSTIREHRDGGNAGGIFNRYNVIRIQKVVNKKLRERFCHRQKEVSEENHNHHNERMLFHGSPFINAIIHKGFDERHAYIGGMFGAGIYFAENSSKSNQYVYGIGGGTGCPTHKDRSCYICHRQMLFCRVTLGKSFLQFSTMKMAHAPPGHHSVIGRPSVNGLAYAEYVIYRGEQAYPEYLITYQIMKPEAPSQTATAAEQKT
Protocol: (§3) With the calorimetric substrate ADP-ribose-pNP in hand, a continuous calorimetric assay for PARP activity was developed and the kinetic parameters for three PARP isozymes were determined. In a 96-well plate, a range of concentrations of ADP-ribose-pNP in PARP assay buffer were incubated with either PARP-1 (DNase digested DNA was added to activate PARP-1), tankyrase-1 (refers to “active domain,” see Supporting Information), or VPARP (also refers to the “active domain”), and the optical density at 405 nm was measured every 60 seconds over a 2 hour time period. Change in absorbance was assessed in triplicate, and blanks containing 0 to 700 μM ADP-ribose-pNP in PARP assay buffer were also measured over the same time period. The absorbance of a range of p-nitrophenol concentrations was determined at 405 nm, and the slope of this calibration curve (see Supporting Information) was used to convert the absorbencies to moles of product generated; in this way the kinetic parameters for PARP-1, tankyrase-1, and VPARP were calculated (see Table 1 and FIG. 2).
Kinetics of VPARP and Tankyrase-1. The ADP-ribose-pNP colorimetric substrate was diluted from a 10 mM stock in PARP assay buffer to 1142.9 μM. From this stock, dilutions into PARP assay buffer were made in 15×1.7 mL tubes so that the volume was 490 μL. This was enough to perform the experiment in triplicate, with additional wells (no protein) to serve as blanks for each substrate concentration. The concentration of substrate in each tube was made such that 70 μL from each tube could be added to the wells of a 96 well plate. When each well was brought to the final volume of 100 μL, the desired final concentration was reached. See FIG. 2B and FIG. 5B for tank-ad and VPARP substrate concentrations, respectively. Concentrations ranged from 0 to 700 μM with a finer distribution at lower substrate concentrations.
The plate was divided in half with protein added to half the wells and the other half serving as blanks containing only PARP assay buffer and substrate. After adding 70 μL of substrate from each tube to 3 wells on the protein side or 3 wells of the blank side, 30 μL of PARP assay buffer was added to all the wells of the blank side. Next, 30 μL of the enzyme was added to each of the wells on the protein half of the plate to initiate the reaction, with a final concentration of tankyrase per well of 21.8 μM and the final concentration of VPARP per well of 19.8 μM. The plate was then read on a SpectraMax plus 384 UV/Vis plate reader (Molecular Devices), at 405 nm for 2 hours with observations performed once every minute. Mixing was conducted between observations.
(§4) Data analysis. […] Graphs were analyzed using Table Curve 2D.

[4] = molecular target: T3, PARP-1 (Homo sapiens, UniProt P09874); test: Continuous colorimetric PARP kinetic assay with ADP-ribose-pNP, PARP-1; assay type: biochemical; set-up: purchased Trevigen
Protocol: as §3
Preparation of damaged DNA for PARP-1. […]
Kinetics of PARP-1. […] The plate was then read on a SpectraMax plus UV/Vis plate reader (Molecular Devices), at 405 nm for 2 hours, reading once every minute with mixing between reads.
as §4

[5] = molecular target: T4, tankyrase-1 (Homo sapiens, UniProt O95271); conditions: tankyrase-1 literature, β-NAD+ as substrate; cited from earlier work
T4 sequence (O95271 1-1327): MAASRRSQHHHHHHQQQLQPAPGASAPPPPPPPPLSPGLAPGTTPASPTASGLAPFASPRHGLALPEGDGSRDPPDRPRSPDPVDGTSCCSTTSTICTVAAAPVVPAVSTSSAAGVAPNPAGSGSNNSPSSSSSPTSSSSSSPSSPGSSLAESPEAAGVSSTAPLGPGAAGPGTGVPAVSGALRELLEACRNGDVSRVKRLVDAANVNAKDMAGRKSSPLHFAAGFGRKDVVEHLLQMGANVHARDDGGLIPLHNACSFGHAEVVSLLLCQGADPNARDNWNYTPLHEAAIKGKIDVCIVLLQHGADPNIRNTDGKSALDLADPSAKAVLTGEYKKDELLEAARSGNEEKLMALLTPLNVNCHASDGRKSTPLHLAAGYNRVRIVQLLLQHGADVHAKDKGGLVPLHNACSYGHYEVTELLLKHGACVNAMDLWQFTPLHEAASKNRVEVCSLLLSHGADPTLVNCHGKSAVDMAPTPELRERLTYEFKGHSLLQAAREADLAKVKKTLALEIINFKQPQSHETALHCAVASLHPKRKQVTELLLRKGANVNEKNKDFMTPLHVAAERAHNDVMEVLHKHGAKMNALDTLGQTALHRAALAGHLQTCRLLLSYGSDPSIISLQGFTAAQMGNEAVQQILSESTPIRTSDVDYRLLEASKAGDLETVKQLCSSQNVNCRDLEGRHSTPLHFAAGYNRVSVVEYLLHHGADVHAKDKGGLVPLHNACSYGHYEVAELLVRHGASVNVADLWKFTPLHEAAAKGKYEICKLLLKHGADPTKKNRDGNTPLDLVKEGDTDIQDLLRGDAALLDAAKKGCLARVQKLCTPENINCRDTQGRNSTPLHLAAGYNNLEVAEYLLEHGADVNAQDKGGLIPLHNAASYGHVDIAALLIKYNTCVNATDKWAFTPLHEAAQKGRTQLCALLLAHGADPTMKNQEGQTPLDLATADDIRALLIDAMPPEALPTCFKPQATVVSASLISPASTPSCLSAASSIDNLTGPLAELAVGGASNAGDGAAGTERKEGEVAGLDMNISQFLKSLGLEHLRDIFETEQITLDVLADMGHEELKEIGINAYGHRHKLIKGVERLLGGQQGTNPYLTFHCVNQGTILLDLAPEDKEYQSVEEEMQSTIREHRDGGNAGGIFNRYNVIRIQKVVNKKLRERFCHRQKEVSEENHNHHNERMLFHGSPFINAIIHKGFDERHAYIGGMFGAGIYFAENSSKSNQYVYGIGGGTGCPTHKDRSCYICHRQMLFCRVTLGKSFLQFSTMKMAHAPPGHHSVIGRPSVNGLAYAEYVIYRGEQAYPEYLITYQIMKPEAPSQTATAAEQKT

[6] = molecular target: T3, PARP-1; set-up: purchased Trevigen; conditions: PARP-1 literature, natural β-NAD+ substrate; cited from earlier work
[7] = tested on: T5, Nc1ncnc2c1ncn2[C@@H]1O[C@H](COP(=O)(O)OP(=O)(O)OC[C@H]2O[C@@H](Oc3ccc([N+](=O)[O-])cc3)C(O)C2O)C(O)C1O; test: Continuous colorimetric PARP kinetic assay with ADP-ribose-pNP, PARP-1; assay type: biochemical; conditions: other: PARP-1 activated with DNase digested DNA; substrate ADP-ribose-pNP; 405 nm; pH 8.0
T5 construct: purchased Trevigen
Protocol: as §3
Preparation of damaged DNA for PARP-1. 500 μL of Herringsperm DNA (10 mg/ml) was added to 100 mL DNase buffer (400 mM Tris-HCl, 100 mM MgSO4, and 10 mM CaCl2, pH 8.0), along with 50 μL of DNase (1 unit/mL). This solution was first incubated at 37° C. for 1 minute and then heated at 90° C. for 20 minutes to inactivate the DNase. Damaged DNA was used without any further purification.
Kinetics of PARP-1. A 160 μL volume of PARP-1 (0.45 mg/mL) was premixed with 262.4 μL of the damaged herringsperm DNA and 2777.6 μl of PARP assay buffer. This mixture (known as activated PARP in assay buffer) was allowed to equilibrate on ice for 4 hours. The ADP-ribose-pNP colorimetric substrate was diluted from a 5000 μM stock in PARP assay buffer directly into the wells of a 96 well plate. […] The plate was then read on a SpectraMax plus UV/Vis plate reader (Molecular Devices), at 405 nm for 2 hours, reading once every minute with mixing between reads.
as §4

[8] = substrate: Nc1ncnc2c1ncn2[C@@H]1O[C@H](COP(=O)(O)OP(=O)(O)OC[C@H]2O[C@@H](Oc3ccc([N+](=O)[O-])cc3)C(O)C2O)C(O)C1O; test: Continuous colorimetric PARP kinetic assay with ADP-ribose-pNP, VPARP active domain; assay type: biochemical; conditions: other: VPARP active domain; substrate ADP-ribose-pNP; 405 nm
Protocol: as §1, §2

[9] = tankyrase-1, versus literature values
[10] = tankyrase-1 active domain, substrate ADP-ribose-pNP, 405 nm

T3 sequence (P09874 whole entry): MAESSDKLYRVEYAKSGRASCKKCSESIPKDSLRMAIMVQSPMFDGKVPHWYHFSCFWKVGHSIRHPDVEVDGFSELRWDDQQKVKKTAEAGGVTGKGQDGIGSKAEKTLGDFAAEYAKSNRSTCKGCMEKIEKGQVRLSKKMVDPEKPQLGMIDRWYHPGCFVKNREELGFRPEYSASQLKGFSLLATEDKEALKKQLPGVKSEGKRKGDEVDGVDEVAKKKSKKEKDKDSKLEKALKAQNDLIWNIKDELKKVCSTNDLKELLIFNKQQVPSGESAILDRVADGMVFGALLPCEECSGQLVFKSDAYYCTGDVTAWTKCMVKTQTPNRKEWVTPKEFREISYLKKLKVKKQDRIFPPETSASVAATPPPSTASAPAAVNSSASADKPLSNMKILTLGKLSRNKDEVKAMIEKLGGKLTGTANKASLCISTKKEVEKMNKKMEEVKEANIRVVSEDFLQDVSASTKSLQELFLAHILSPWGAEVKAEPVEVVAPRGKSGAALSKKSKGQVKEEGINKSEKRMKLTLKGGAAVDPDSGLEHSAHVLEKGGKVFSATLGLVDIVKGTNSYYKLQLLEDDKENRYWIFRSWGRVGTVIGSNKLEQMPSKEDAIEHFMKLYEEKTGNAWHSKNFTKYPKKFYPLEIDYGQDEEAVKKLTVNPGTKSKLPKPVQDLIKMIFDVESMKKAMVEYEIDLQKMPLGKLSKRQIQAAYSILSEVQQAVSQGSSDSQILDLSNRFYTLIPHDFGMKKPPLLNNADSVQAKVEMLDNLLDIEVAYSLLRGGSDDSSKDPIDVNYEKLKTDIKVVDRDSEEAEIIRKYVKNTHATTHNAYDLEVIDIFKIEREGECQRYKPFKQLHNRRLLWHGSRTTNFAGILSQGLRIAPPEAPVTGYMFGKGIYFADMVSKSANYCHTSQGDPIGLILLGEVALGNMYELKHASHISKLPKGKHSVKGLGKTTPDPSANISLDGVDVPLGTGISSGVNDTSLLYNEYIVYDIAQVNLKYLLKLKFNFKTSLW
bovine serum albumin, sequence (P02769 25-607): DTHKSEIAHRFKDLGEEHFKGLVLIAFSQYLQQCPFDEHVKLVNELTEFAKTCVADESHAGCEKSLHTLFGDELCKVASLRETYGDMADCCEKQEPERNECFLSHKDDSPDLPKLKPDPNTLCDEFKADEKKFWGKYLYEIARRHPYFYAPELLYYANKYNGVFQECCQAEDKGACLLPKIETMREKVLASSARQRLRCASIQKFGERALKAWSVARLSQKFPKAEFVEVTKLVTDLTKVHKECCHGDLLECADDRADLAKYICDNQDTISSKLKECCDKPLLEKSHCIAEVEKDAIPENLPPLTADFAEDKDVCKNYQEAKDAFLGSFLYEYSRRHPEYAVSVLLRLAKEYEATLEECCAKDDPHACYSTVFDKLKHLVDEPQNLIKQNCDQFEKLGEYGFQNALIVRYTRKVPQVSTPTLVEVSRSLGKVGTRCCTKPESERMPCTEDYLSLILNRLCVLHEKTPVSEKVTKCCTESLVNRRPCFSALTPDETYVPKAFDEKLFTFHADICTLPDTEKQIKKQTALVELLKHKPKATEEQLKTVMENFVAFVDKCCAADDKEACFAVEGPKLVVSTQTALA

Nc1ncnc2c1ncn2[C@@H]1O[C@H](COP(=O)(O)OP(=O)(O)OC[C@H]2O[C@@H](Oc3ccc([N+](=O)[O-])cc3)C(O)C2O)C(O)C1O (stereo partly shown) [ADP-ribose-pNP]
signal at 405 nm on incubation with bovine serum albumin [1]: no signal
Vmax [2]: 2.03e-06 µmol/min/mg
KM fold lower than literature value with β-NAD+ as substrate [3, 9]: approximately 18 fold
Vmax compared to literature values with β-NAD+ as substrate [3, 9]: significantly lower
Km [3, 10]: 82 µM
Vmax [3, 10]: 1.81e-05 µmol/min/mg
kcat [3, 10]: 1.88e-05 s⁻¹
Vmax fold lower with colorimetric substrate than with natural β-NAD+ substrate ([4]; PARP-1, versus literature values): approximately 100 fold
Vmax ([4]; PARP-1 activated with DNase digested DNA, substrate ADP-ribose-pNP, 405 nm): 0.0013 µmol/min/mg

NC(=O)c1ccc[n+]([C@@H]2O[C@H](COP(=O)([O-])OP(=O)(O)OC[C@H]3O[C@@H](n4cnc5c(N)ncnc54)[C@H](O)[C@@H]3O)[C@@H](O)[C@H]2O)c1 [β-NAD^+, nicotinamide adenine dinucleotide]
Km [5]: 1500 µM
kcat [5]: 0.71 s⁻¹
Km [6]: 59 to 278 µM
Vmax [6]: 0.2 to 2.4 µmol/min/mg
kcat [6]: 0.41 s⁻¹

PARP-1 (Homo sapiens)
Km [7]: 151 µM
Vmax [7]: 0.0013 µmol/min/mg
kcat [7]: 0.025 s⁻¹

B1: VPARP (Homo sapiens) (protein)
chain: PPSLAKYRALRCKIEHVEQNTEEFLRVRKEVLQNHHSKSPVDVLQIFRVGRVNETTEFLSKLGNVRPLLHGSPVQNIVGILCRGLLLPKVVEDRGVQRTDVGNLGSGIYFSDSLSTSIKYSHPGETDGTRLLLICDVALGKCMDLHEKDFSLTEAPPGYDSVHGVSQTASVTTDFEDDEFVVYKTNQVKMKYIIKFSMPGDQIKD
notes: The plasmid with the catalytic domain of VPARP, pET28b-p193cat; made in house; host or cells: E. coli Rosetta
Km [8]: 46 µM
Vmax [8]: 2.03e-06 µmol/min/mg
